Assay [1] concerns OF-1 mice. The experiment in a line: Memory loss induced by beta amyloid 25-35 peptide oligomers (in vivo). To be noted: JM-20 administered 7 days after beta amyloid administration; 10 and 30 mg/kg orally for 10 days; Aβ 100 pmol i.c.v. As to the method:
For the different studies JM-20 was suspended in carboxymethyl cellulose (CMC) 0.05% and administered orally. Scopolamine bromide was dissolved in the 0.9% saline solution and administered intraperitoneally (1 mg/kg, 4 mL/Kg of weight). Aluminum chloride was dissolved in common drinking water for the experimental subjects and administered orally in a 500 mg/Kg peso dose, in chronic form for one month and while behavioral studies were conducted. Beta amyloid peptides (25-35) were oligomerized and made soluble according to the manufacturer's norms and administered via intracerebroventricular means at 100 pmols in 5 uL, into the right cerebral hemisphere.
In vivo experiments corresponding to the scopolamine and aluminum model used Wistar rats (males, 230-260 g), while in vivo experiments corresponding to the beta amyloid model used OF-1 mice (males, 25-30 g). All the animals came from the National Laboratory Animal Production Center (CENPALAB, Mayabeque, Cuba) and after their arrival they underwent adaptation to laboratory conditions for 7 days. […]
Subsequently we conducted in vivo studies on OF-1 mice. We assessed the effect of JM-20 on memory loss induced by beta amyloid oligomers administered 7 days after the intracerebroventricular administration of Aβ (100 pmols) during 10 days, orally in 10 and 30 mg/kg weight doses. […]

Assay [2] deals with male Wistar rats. The assay can be described thus: Cylinder test after unilateral 6-OHDA lesion of the substantia nigra pars compacta. It counts as in vivo. To be noted: 6-OHDA damage, after 7 days of treatment. As to the method: (§1) Male adult Wistar rats were used, weighing between 200 and 250 grams at the start of the experiment, coming from the National Laboratory Animal Production Center (CENPALAB), Havana, Cuba. The animals were kept at the Center for the Research and Development of Medicines (CIDEM) in plastic translucent boxes at an average temperature of 23° C. (22±2° C.), with food and water supplies ad libitum and 12-hour periods of light and dark.
JM-20 was administered in 3 different doses: 10, 20 and 40 mg/Kg, 24 hours after inducing damage and on a daily basis for 7 days. The compound was prepared in carboxymethylcellulose (CMC) at 0.05%, intragastrically with a cannula. There were 5 experimentation groups: Group I (vehicle/saline with ascorbic acid, n=6), Group II (animals affected with 6-OHDA, n=8), Group III (animals affected with 6-OHDA and co-treated with 10 mg/Kg JM-20, n=8), Group IV (animals affected with 6-OHDA and co-treated with 20 mg/Kg JM-20, n=8) and Group V (animals affected with 6-OHDA and co-treated with 40 mg/Kg JM-20 n=8). All behavioral studies were run at 7 days.
For the purpose of proceeding to unilateral dopaminergic denervation of the striate body (right hemisphere) the rats were anesthetized with Chloral Hydrate [0.4 g/kg weight, i.p., Merck (Darmstadt, Germany)] and placed into a frame designed for stereotactic surgery (Stoelting Instruments, USA.), where they were injected in the right substantia nigra pars compacta with saline solution neurotoxin 6-OHDA-HBr (8 μg/3 μL, also containing 0.2 mg/ml of ascorbic acid as an antioxidant) (Pavón Fuentes, Nancy (2007) Efecto de la inactivación de los receptores dopaminérgicos D2 y de la manipulación del núcleo subtalámico sobre la conducta motora en modelos de hemiparkinsonismo en roedores. Doctor en Ciencias de una Especialidad, Universidad de Ciencias Médicas de La Habana). Coordinates were calculated taking Bregma as a point of reference in accordance with the Paxinos and Watson Atlas [Paxinos, G. and Watson, C., The rat brain in stereotaxic coordenates. 2nd the Academic Press. New York, 1986], referred to in Table 1. […]

Assay [3] relates to male Wistar rats. The experiment in a line: Exploratory Activity Test (vertical exploration) after unilateral 6-OHDA lesion. Format: in vivo. As to conditions: 6-OHDA damage, after 7 days of treatment, statistically different at 40 mg/Kg versus untreated injured animals. As to the method: as §1
JM-20 was administered in 3 different doses: 10, 20 and 40 mg/Kg, 24 hours after inducing damage and on a daily basis for 7 days. The compound was prepared in carboxymethylcellulose (CMC) at 0.05%, intragastrically with a cannula. […]
In order to assess the vertical exploratory activity of animals we used the Exploratory Activity Test; the animal is placed in a clear Plexiglas cubicle, 41×41×33 (h) cm, (UGO BASILE, MultipleActivityCage Cat. No. 47420. Data output is managed by 52050-04 Data Acquisition Software Package (Windows® based). The cubicle is supported on a robust base made of black Plexiglas that has 4 vertical steel bars with steel grooves so that the horizontal/vertical detection systems are correctly affixed. The sensors are IR light emission systems capable of registering animal movements by shapes, or rather vertical exploration. Data is monitored on a computer. […]

In assay [4] the test system is CCI rats. The assay can be described thus: Histology of sciatic nerve (Wallerian degeneration) in chronic constriction injury (CCI) model. Format: in vivo. To be noted: JM-20 20 mg/Kg p.o., repeated doses for 7 days starting Day 7 post-CCI, 14 days after surgery, H/E and luxol fast blue. The source says: We studied the effect of JM-20 on the chronic constriction of the sciatic nerve model (CCI), an NP model (Bennett M I, Rayment C, Hjermstad M, Aass N, Caraceni A, Kaasa S. Prevalence and aetiology of neuropathic pain in cancer patients: A systematic review. Pain 2012; 153:359-365) Results are presented in FIG. 19-23.
A, B and C show the longitudinal section of the sciatic nerve 5 mm distal to the lesion on CCI Sham rats, CCI treated with JM-20 and treated with vehicle respectively (H/E coloration). We can observe the increase in cellularity in CCI animals relatively compared with sham operated animals as the result of the proliferation of Schawann cells and the infiltration of macrophages and the loss of an orderly alignment of axons associated to their myelin sheathes as compared to the sham-CCI. The arrow indicates one of the many digestion chambers of Schawann cells containing a myelin ovoid (reddish oval mass). D, E, F show sections from the same animals but they are colored by the luxol fast blue (LFB) technique, a specific technique for myelin tincture.

The subject of assay [5] is rats. The assay can be described thus: 5% formalin test (tonic pain), Phase II. It counts as in vivo. As to conditions: Phase II (15-45 min), flumazenil pre-treatment study. Here is the method:
We studied the effect of JM-20 (10, 20, 40 mg/Kg, p.o) on behaviors related to pain in a tonic pain model (5% formalin test) in rats. (Dubuisson D, Dennis S G. The formalin test: a quantitative study of the analgesic effects of morphine, meperidine and brain-stem stimulation in rats and cats. Pain 1977; 4:161-174).
Each column represents the reaction time of 6-10 animals per group as the mean±EEM, * P<0.05, ***P<0.001 represents the statistical differences between treated and control groups (only vehicle), ****P<0.05 represents statistical differences between groups treated with diazepam in the presence or absence of flumazenil, 1p<0.05 represents statistical differences between groups treated with JM-20 in the presence or absence of flumazenyl.

Entries after “also recorded” stand apart in the source; their conditions may differ.

As for `CCOC(=O)C1=C(C)NC2=C(C=Nc3ccccc3N2)C1c1ccccc1[N+](=O)[O-]` (stereo not shown) [JM-20, 3-etoxicarbonil-2-methyl-4-(2-nitrofeenil)-4,11-dihydro-1H-pirido[2,3-b][1,5] benzodiacepine], the “memory loss induced by beta amyloid 25-35 peptide oligomers” value in assay [1] was “reverts memory loss”. Further, the “use of the paw contralateral to the damage” value in assay [2] (JM-20 40 and 20 mg/Kg) is on record as “increased use of the paw contralateral to the damage; also recorded: increased use of contralateral leg”. For the same compound, in assay [2] (both doses of JM-20 (40 and 20 mg/Kg), normal values), the “use of the ipsilateral paw” value was approximately 50%. Moreover, the “% of asymmetry (cylinder test), motor damage” value in assay [2] (versus injured animals without treatment) is given as “diminished motor damage; also recorded: decrease in motor damage”. Further, the vertical exploration result in assay [3] is “increased their vertical exploration”. The “histological changes induced by CCI (Wallerian degeneration): nerve fiber disorganization, cell number, myelin sheath degradation” value in assay [4] is “reduced disorganization of the nerve fibers induced by CCI; also recorded: Reduction in CCI-induced nerve fiber disruption and cell count increase and myelin sheath degradation”. For the same compound, the “effect on Phase II of the 5% formalin test” value in assay [5] is recorded as “antihypernociceptive effect”.

The values are drawn from patent US11098039B2, “Benzodiazepine product with activity on the central nervous and vascular systems” (UNIVERSIDAD DE LA HABANA, priority 2016, dated 2021).
